The test system of one experiment is biofilm. Kind of experiment: Removal of biofilm from contaminated dental equipment with chlorine dioxide solution. From the text: Apparatus 1310 can also be incorporated into a pouch like that depicted in FIG. 15 to generate a desired concentration of gas, e.g., chlorine dioxide, in water. This embodiment is particularly useful in wet applications, e.g., for use in removing biofilm from dental equipment. One such apparatus was constructed and used to generate an aqueous solution containing 50 parts per million chlorine dioxide. It was then emptied into a dental equipment reservoir and allowed to run through the equipment, which was contaminated with biolfilm, and stand overnight. In the morning, the dental equipment was flushed with water. This procedure was repeated the following two nights. The equipment was then tested for the presence of biofilm and the biofilm was diminished. Thereafter, rinsing the equipment once daily with a 5 parts per million solution was adequate to retard the growth of biofilm in the equipment.

The test system of a further experiment is microbes. To be noted: as low as; cited from earlier work.

In the case of `[O][Cl+][O-]` [chlorine dioxide], the “presence of biofilm in dental equipment after treatment” value in the experiment with biofilm (50 parts per million solution, run through and left overnight, three nights) was “diminished”. The “concentration of solution adequate to retard the growth of biofilm” value in the experiment on biofilm (rinsing the equipment once daily, after initial treatment) is reported as 5 parts per million. For the same molecule, the “concentration at which effective as disinfectant” value in the experiment on microbes is on record as 0.2 mg/L.

(Values after patent US20040022676A1, “Apparatus and method for controlled delivery of a gas” (Selective Micro Technologies, LLC, priority 2000, published 2004).)
